This is an account of results in ChEMBL document CHEMBL1201862, “PubChem BioAssay data set” (2004).

Test systems include IGROV-1; RXF 393; RPMI-8226; HT-29; 786-0; SK-MEL-2; LOX IMVI; OVCAR-8; K562; COLO 205; SK-MEL-28; SR; KM-20L2; UO-31; CAKI-1; SK-MEL-5.
Holding throughout (assay): NCI anticancer screen, dose series, 48 h

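Growth conditions: 96-well plates. Treatment: test compound, 48 hours, 5 concentrations. Analysis: linear interpolation between bracketing concentrations; unreached endpoints set to highest concentration. Abbreviation: GI50, concentration required for 50% inhibition of growth.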 Active and inactive are the calls of the source. Cut-off read from the data, not from the text of the source: active = GI50 up to about 1.1 µM and inactive = higher.

For `O=C1CCC2(c3ccc(Cl)cc3)Nc3ccccc3N12` (stereo not given), the GI50 was > 100 µM (inactive) in the test with IGROV-1; 48.3 µM (inactive) with RXF 393; 53.7 µM (inactive) with RPMI-8226; > 100 µM (inactive) in the test with HT-29; > 100 µM (inactive) in the test with 786-0; > 100 µM (inactive) in the test on SK-MEL-2. For the same molecule, the GI50 is > 100 µM (inactive) in the test on LOX IMVI; > 100 µM (inactive) with OVCAR-8; 54.5 µM (inactive) in the test on K562; > 100 µM (inactive) in the test with COLO 205; > 100 µM (inactive) in the test with SK-MEL-28; 34.4 µM (inactive) with SR. The GI50 with KM-20L2 is > 100 µM (inactive); in the test on UO-31 it was 49.7 µM (inactive).
For the molecule `CNS(=O)(=O)NN(C)S(=O)(=O)c1ccc(Cl)cc1`, the GI50 in the test with IGROV-1, with RXF 393, in the test on CAKI-1, with RPMI-8226, in the test on HT-29 and in the test on 786-0 was > 100 µM (inactive) each time. Besides, the GI50 in the test with SK-MEL-2, in the test on LOX IMVI, in the test on SK-MEL-5, with OVCAR-8, in the test with K562 and in the test with COLO 205 was > 100 µM (inactive) throughout. Besides, the GI50 in the test with SR, in the test with KM-20L2 and in the test on UO-31 was > 100 µM (inactive) in each case.
Turning to `Cc1coc2c1C(=O)C(=O)c1ccccc1-2`, the GI50 is 1.83 µM (inactive) in the test on IGROV-1; 1.74 µM (inactive) with RXF 393; 1.86 µM (inactive) in the test on CAKI-1; 1.8 µM (inactive) in the test with HT-29; 1.84 µM (inactive) in the test on 786-0; 1.87 µM (inactive) in the test on SK-MEL-2. Moreover, the GI50 with LOX IMVI was 0.305 µM (active); in the test with SK-MEL-5 it was 0.56 µM (active); in the test on OVCAR-8 it was 0.322 µM (active); with K562, 0.335 µM (active); in the test with COLO 205 it was 1.5 µM (inactive); with SK-MEL-28 it was 1.71 µM (inactive). For the same molecule, the GI50 in the test on SR is 1.38 µM (inactive); in the test with KM-20L2, 3.36 µM (inactive); in the test with UO-31, 3.1 µM (inactive).
As for `OC(Cn1cncn1)(Cn1cncn1)c1ccc(Cl)cc1Cl`, the GI50 with IGROV-1, in the test with RXF 393, with CAKI-1, with RPMI-8226, in the test with HT-29 and in the test with 786-0 was > 100 µM (inactive) each time. The GI50 in the test with SK-MEL-2, with LOX IMVI, with SK-MEL-5, in the test on OVCAR-8, in the test with K562 and in the test on COLO 205 was > 100 µM (inactive) each time. Also, the GI50 in the test with SK-MEL-28, in the test on SR, with KM-20L2 and in the test on UO-31 was > 100 µM (inactive) in each case.
For `C/C(CCN(C)C)=N\OC(=O)c1ccccc1`, the GI50 in the test with IGROV-1, in the test on RXF 393, in the test on CAKI-1, with RPMI-8226, in the test on HT-29 and in the test on 786-0 was > 100 µM (inactive) each time. Moreover, the GI50 in the test with SK-MEL-2, with LOX IMVI, in the test with SK-MEL-5, in the test with OVCAR-8, with K562 and in the test on COLO 205 was > 100 µM (inactive) throughout. For the same molecule, the GI50 in the test with SK-MEL-28, in the test with SR, in the test on KM-20L2 and with UO-31 was > 100 µM (inactive) each time.
As to `COc1cc2c(cc1OC)[C@@H](C(O)c1ccccc1)NCC2` (stereo not given in full), the GI50 in the test on IGROV-1, in the test with RXF 393, in the test on CAKI-1, in the test with HT-29, in the test with 786-0 and in the test with SK-MEL-2 was > 100 µM (inactive) throughout. Also, the GI50 in the test with LOX IMVI, in the test on SK-MEL-5, in the test with OVCAR-8, in the test with K562, in the test with COLO 205 and with SR was > 100 µM (inactive) throughout. Besides, the GI50 in the test on KM-20L2 and in the test with UO-31 was > 100 µM (inactive) in each case.
As to `CC(=O)N(CCN)CCN`, the GI50 is > 10 µM (inactive) in the test on RXF 393; > 10 µM (inactive) with CAKI-1; > 10 µM (inactive) in the test with RPMI-8226; > 10 µM (inactive) with 786-0; > 100 µM (inactive) with SK-MEL-2; > 10 µM (inactive) with LOX IMVI. The GI50 with SK-MEL-5 is > 100 µM (inactive); in the test with OVCAR-8, > 10 µM (inactive); in the test on K562, > 10 µM (inactive); with COLO 205 it was > 10 µM (inactive); in the test with SK-MEL-28 it was > 10 µM (inactive); in the test on SR it was > 10 µM (inactive). Besides, the GI50 in the test with KM-20L2 and in the test with UO-31 was > 10 µM (inactive) throughout.
On to `COc1ccc(C2C(Cl)C(=O)N2NC(=O)Cc2ccccc2)cc1OC` (stereo not given), for which the GI50 in the test with IGROV-1, in the test with RXF 393, in the test with CAKI-1, in the test with RPMI-8226, in the test with HT-29 and in the test with 786-0 was > 100 µM (inactive) each time. Further, the GI50 in the test on SK-MEL-2, with LOX IMVI, with SK-MEL-5, in the test on OVCAR-8, in the test with K562 and with COLO 205 was > 100 µM (inactive) in each case. The GI50 with SK-MEL-28, with SR, with KM-20L2 and in the test on UO-31 was > 100 µM (inactive) throughout.
For the molecule `CC(=O)NNc1nc(C)c(C(=O)NNC(=O)C(=O)Nc2c(C)cccc2C(C)(C)C)s1`, the GI50 with IGROV-1 was 93.3 µM (inactive); with RXF 393, > 100 µM (inactive); with CAKI-1, 49.5 µM (inactive); in the test on RPMI-8226, 45.9 µM (inactive); in the test with HT-29, 64 µM (inactive); in the test with SK-MEL-2 it was > 100 µM (inactive). Moreover, the GI50 in the test with LOX IMVI is 57.8 µM (inactive); with SK-MEL-5 it was > 100 µM (inactive); in the test on OVCAR-8, > 100 µM (inactive); in the test on K562 it was 31.3 µM (inactive); in the test with COLO 205, 46.8 µM (inactive); with SK-MEL-28, > 100 µM (inactive). For the same molecule, the GI50 is 48.2 µM (inactive) in the test on SR, 83.4 µM (inactive) with KM-20L2 and 47.8 µM (inactive) in the test on UO-31.
On to `Cc1nc2c(=O)[nH]c(=O)n(C)c2[nH]c1=O.c1ccncc1`, for which the GI50 with IGROV-1, in the test on RXF 393, with CAKI-1, with RPMI-8226, with HT-29 and in the test on 786-0 was > 100 µM (inactive) in each case. Moreover, the GI50 in the test on SK-MEL-2, in the test on LOX IMVI, in the test on SK-MEL-5, in the test on OVCAR-8, in the test with K562 and in the test with COLO 205 was > 100 µM (inactive) in each case. Moreover, the GI50 with SK-MEL-28, in the test on SR, with KM-20L2 and in the test with UO-31 was > 100 µM (inactive) each time.
On to `c1ccc(-c2ccnc3c2ccc2c(-c4ccccc4)ccnc23)cc1`, for which the GI50 in the test on IGROV-1 was 0.931 µM (active); in the test with RXF 393 it was 1.83 µM (inactive); in the test with HT-29, 1.18 µM (inactive); in the test on 786-0, 2.64 µM (inactive); in the test on SK-MEL-2 it was 3.37 µM (inactive); in the test on LOX IMVI, 2.31 µM (inactive). The GI50 in the test on SK-MEL-5 is 0.736 µM (active); in the test with OVCAR-8, 1.48 µM (inactive); in the test on K562, 0.621 µM (active); with COLO 205 it was 2.98 µM (inactive); in the test with SK-MEL-28, 4.57 µM (inactive); with SR, 0.273 µM (active). The GI50 was 3.73 µM (inactive) in the test on KM-20L2 and 0.5 µM (active) with UO-31.
